# US20240025883A1, “PYRIMIDIN-2-YL SULFONAMIDE DERIVATIVES” (Hoffmann-La Roche Inc., priority 2021, published 2024)
# Molecular target: human GPR17 short isoform (Homo sapiens (Human), UniProt Q13304)
# Assay: GPR17 cAMP assay (hGPR17 cAMP, antagonist mode against EC80 of MDL29,951)
# Assay type: cell-based
# Conditions: CHO-K1 cells stably expressing human GPR17 short isoform; EC80 of agonist MDL29,951; forskolin 15 μM
# Method in brief: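 CHO-K1 cells stably expressing untagged human GPR17 short isoform, 10,000/well in HBSS/10 mM HEPES/0.1% BSA pH 7.4. Compounds added with EC80 MDL29,951 and 0.5 mM IBMX, then 15 μM forskolin 5 min later, 30 min at room temperature; cAMP by TR-FRET, normalized to reference antagonist, sigmoidal fit.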
# Sequence of human GPR17 short isoform (Q13304 29-367): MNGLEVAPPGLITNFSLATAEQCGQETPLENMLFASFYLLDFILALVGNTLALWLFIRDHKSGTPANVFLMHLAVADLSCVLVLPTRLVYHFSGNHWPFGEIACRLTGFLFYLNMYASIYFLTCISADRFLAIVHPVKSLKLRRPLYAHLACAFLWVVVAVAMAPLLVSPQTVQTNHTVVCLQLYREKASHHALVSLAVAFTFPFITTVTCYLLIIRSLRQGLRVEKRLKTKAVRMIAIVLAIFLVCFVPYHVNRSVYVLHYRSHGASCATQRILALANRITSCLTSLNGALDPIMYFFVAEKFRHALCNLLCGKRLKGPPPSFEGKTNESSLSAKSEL
row,IC50 [nM],Compound
1,40,"COc1nc(NS(=O)(=O)c2c[nH]c3cc(Cl)ccc23)ncc1COC(F)F [Example 262, 6-chloro-N-[5-(difluoromethoxymethyl)-4-methoxy-pyrimidin-2-yl]-1H-indole-3-sulfonamide]"
2,23,"COc1nc(NS(=O)(=O)c2c[nH]c3cc(Cl)ccc23)nc(OC)c1CC(F)CF (stereo not drawn) [Example 264, 6-chloro-N-[5-(2,3-difluoropropyl)-4,6-dimethoxy-pyrimidin-2-yl]-1H-indole-3-sulfonamide]"
3,14,"COc1nc(NS(=O)(=O)c2c[nH]c3cc(Cl)ccc23)nc(OC)c1OCC#N [Example 265, 6-chloro-N-[5-(cyanomethoxy)-4,6-dimethoxy-pyrimidin-2-yl]-1H-indole-3-sulfonamide]"
4,90,"COc1nc(NS(=O)(=O)c2c[nH]c3cc(Cl)ccc23)ncc1CC(F)C(F)F (stereo not drawn) [Example 266, 6-chloro-N-[4-methoxy-5-(2,3,3-trifluoropropyl)pyrimidin-2-yl]-1H-indole-3-sulfonamide]"
5,49,"COc1nc(NS(=O)(=O)c2c[nH]c3cc(Cl)ccc23)ncc1OCC#N [Example 267, 6-chloro-N-[5-(cyanomethoxy)-4-methoxy-pyrimidin-2-yl]-1H-indole-3-sulfonamide]"
6,1180,"COc1nc(NS(=O)(=O)c2c[nH]c3cc(C4COC4)ccc23)ncc1CC(F)F [Example 272, N-[5-(2,2-difluoroethyl)-4-methoxy-pyrimidin-2-yl]-6-(oxetan-3-yl)-1h-indole-3-sulfonamide]"
7,237,"COc1nc(NS(=O)(=O)c2c[nH]c3cc(C(C)(C)O)ccc23)ncc1CC(F)F [Example 274, N-[5-(2,2-difluoroethyl)-4-methoxy-pyrimidin-2-yl]-6-(1-hydroxy-1-methyl-ethyl)-1h-indole-3-sulfonamide]"
8,136,"COc1nc(NS(=O)(=O)c2c[nH]c3c([S+](C)[O-])c(Cl)ccc23)ncc1CC(F)F (stereo not drawn) [Example 276, 6-chloro-N-[5-(2,2-difluoroethyl)-4-methoxy-pyrimidin-2-yl]-7-methylsulfinyl-1H-indole-3-sulfonamide]"
9,718,"COc1nc(NS(=O)(=O)c2c[nH]c3c(S(C)(=O)=O)c(Cl)ccc23)ncc1CC(F)F [Example 277, 6-chloro-N-[5-(2,2-difluoroethyl)-4-methoxy-pyrimidin-2-yl]-7-mesyl-1h-indole-3-sulfonamide]"

# Further lines, the compound ahead of its results:
row,Compound,IC50 [nM]
1,"COc1nc(NS(=O)(=O)c2c[nH]c3cc(Cl)ccc23)nc(OC)c1OCC1COC1 [Example 263, 6-chloro-N-[4,6-dimethoxy-5-(oxetan-3-ylmethoxy)pyrimidin-2-yl]-1H-indole-3-sulfonamide]",2060
2,"COc1nc(NS(=O)(=O)c2csc3cc(Br)ccc23)ncc1OC(F)F [Example 268, 6-bromo-N-[5-(difluoromethoxy)-4-methoxy-pyrimidin-2-yl]benzothiophene-3-Sulfonamide]",165
3,"COc1nc(NS(=O)(=O)c2csc3nc(Br)ccc23)nc(OC)c1OC(F)F [Example 269, 6-bromo-N-[5-(difluoromethoxy)-4,6-dimethoxy-pyrimidin-2-yl]thieno[2,3-b]pyridine-3-Sulfonamide]",138
4,"COc1nc(NS(=O)(=O)c2csc3nc(Br)ccc23)ncc1CCC(F)F [Example 270, 6-bromo-N-[5-(3,3-difluoropropyl)-4-methoxy-pyrimidin-2-yl]thieno[2,3-b]pyridine-3-sulfonamide]",72
5,"COc1nc(NS(=O)(=O)c2csc3nc(Cl)ccc23)nc(OC)c1OC(F)F [Example 271, 6-chloro-N-[5-(difluoromethoxy)-4,6-dimethoxy-pyrimidin-2-yl]thieno[2,3-b]pyridine-3-Sulfonamide]",290
6,"COc1ccc2c(S(=O)(=O)Nc3nc(OC)c(C)c(OC)n3)c[nH]c2c1 [Example 273, N-(4,6-dimethoxy-5-methyl-pyrimidin-2-yl)-6-methoxy-1h-indole-3-sulfonamide]",128
7,"COc1nc(NS(=O)(=O)c2c[nH]c3cc(Cl)ccc23)nc(OC)c1OC(F)(F)CO [Example 275, 6-chloro-N-[5-(1,1-difluoro-2-hydroxy-ethoxy)-4,6-dimethoxy-pyrimidin-2-yl]-1H-indole-3-sulfonamide]",128
8,"COc1nc(NS(=O)(=O)c2c[nH]c3c([S+](C)[O-])c(Cl)ccc23)nc(OC)c1OCCF (stereo not drawn) [Example 278, 6-chloro-N-[5-(2-fluoroethoxy)-4,6-dimethoxy-pyrimidin-2-yl]-7-methylsulfinyl-1h-indole-3-sulfonamide]",229
9,"COc1nc(NS(=O)(=O)c2c[nH]c3c([S+](C)[O-])c(Cl)ccc23)nc(OC)c1CC(F)F (stereo not drawn) [Example 279, 6-chloro-N-[5-(2,2-difluoroethyl)-4,6-dimethoxy-pyrimidin-2-yl]-7-methylsulfinyl-1H-indole-3-Sulfonamide]",69
10,"COc1nc(NS(=O)(=O)c2c[nH]c3c(C#N)c(Cl)ccc23)ncc1OCCF [Example 280, 6-Chloro-7-Cyano-N-[5-(2-Fluoroethoxy)-4-Methoxy-Pyrimidin-2-Yl]-1H-Indole-3-Sulfonamide]",62
11,"COc1nc(NS(=O)(=O)c2c[nH]c3cc(Cl)ccc23)nc(OC)c1CCS(C)(=O)=O [Example 281, 6-Chloro-N-[4,6-Dimethoxy-5-(2-Methylsulfonylethyl)Pyrimidin-2-Yl]-1H-Indole-3-Sulfonamide]",237
12,"COc1nc(NS(=O)(=O)c2c[nH]c3c2ccc2sncc23)ncc1CC(F)F [Example 282, N-[5-(2,2-Difluoroethyl)-4-Methoxy-Pyrimidin-2-Yl]-1H-Pyrrolo[2,3-e][1,2]Benzothiazole-3-Sulfonamide]",110
13,"COc1nc(NS(=O)(=O)c2c[nH]c3c(Br)c(Cl)ccc23)nc(OC)c1CC(F)F [Example 283, 7-Bromo-6-Chloro-N-[5-(2,2-Difluoroethyl)-4,6-Dimethoxy-Pyrimidin-2-Yl]-1H-Indole-3-Sulfonamide]",13
14,"COc1nc(NS(=O)(=O)c2c[nH]c3nc(C)ccc23)nc(OC)c1OCC#N [Example 284, N-[5-(Cyanomethoxy)-4,6-Dimethoxy-Pyrimidin-2-Yl]-6-Methyl-1H-Pyrrolo[2,3-b]Pyridine-3-Sulfonamide]",273
15,"COc1nc(NS(=O)(=O)c2c[nH]c3nc(C)ccc23)nc(OC)c1OCC(F)F [Example 285, N-[5-(2,2-Difluoroethoxy)-4,6-Dimethoxy-Pyrimidin-2-Yl]-6-Methyl-1H-Pyrrolo[2,3-b]Pyridine-3-Sulfonamide]",117
16,"COc1nc(NS(=O)(=O)c2c[nH]c3nc(C)ccc23)nc(OC)c1OC(F)F [Example 286, N-[5-(Difluoromethoxy)-4,6-Dimethoxy-Pyrimidin-2-Yl]-6-Methyl-1H-Pyrrolo[2,3-b]Pyridine-3-Sulfonamide]",203
17,"COc1nc(NS(=O)(=O)c2c[nH]c3nc(C(F)F)ccc23)nc(OC)c1CC(F)CF (stereo not drawn) [Example 287, 6-(Difluoromethyl)-N-[5-(2,3-Difluoropropyl)-4,6-Dimethoxy-Pyrimidin-2-Yl]-1H-Pyrrolo[2,3-b]Pyridine-3-Sulfonamide]",114
18,"COc1nc(NS(=O)(=O)c2c[nH]c3nc(Br)ccc23)nc(OC)c1CC(F)CF (stereo not drawn) [Example 288, 6-Bromo-N-[5-(2,3-Difluoropropyl)-4,6-Dimethoxy-Pyrimidin-2-Yl]-1H-Pyrrolo[2,3-b]Pyridine-3-Sulfonamide]",57
